This is an account of results in patent US8742106B2 (Novartis AG, priority 2009, dated 2014).

The target in experiment [1] is human orexin 1 receptors (Homo sapiens (Human), UniProt O43613). As to the kind of experiment: Calcium Accumulation in Cells (FLIPR), antagonism of orexin A. The experiment is classed as cell-based. To be noted: for inhibition at 10 µM: measured at a concentration of 10 μM of compound, read-out: FLIPR hOx1R % inhibition value; for Ki: antagonism of orexin A, Cheng-Prusoff corrected, read-out: FLIPR hOx1R Ki. The method, then: (§1) Calcium Accumulation in Cells (FLIPR):
Cells expressing human orexin 1 or human orexin 2 receptors, were seeded at 8,000 cells/well in 384 well black-walled clear bottom, poly-D-lysine coated plates. After 24 h, the medium was removed and cells were washed once with phosphate buffered saline and serum-deprived overnight in assay buffer (130 mM NaCl, 5.4 mM KCl, 1.8 mM CaCl2, 0.8 mM MgSO4, 0.9 mM NaH2PO4, 25 mM glucose, 20 mM HEPES, pH 7.4) containing bovine serum albumin (1% w/v).
On the day of the experiment, the cells seeded in black plates were treated with assay buffer containing the Ca^2+ sensitive fluorescent dye Fluo4-AM (2 μM), and probenecid (0.1 mM). After 1 h plates were washed twice with, and resuspended in, assay buffer containing probenecid (0.1 mM) using a multi plate washer. The plates were placed into a FLIPR II (Fluorometric Imaging Plate Reader, Molecular Devices, Sunnyvale, Calif., USA) and baseline fluorescence (fluorescence light units, FLU) was measured (5 measurements, 2 S each; laser excitation 488 nm at 0.6-1 W, CCD camera exposure 0.4 s) before addition of buffer alone (basal) or containing test compounds (either compound of formula (I) or (I′) alone, agonist alone or agonist in the presence of various concentrations of compounds of formula (I) or (I′)). Fluorescence measurements were then continued every 1 S for 120 S followed by every 4 S for 240 S.
(§2) The measurements were typically made in two sequences:
(§3) In the first round, compounds of formula (I) or (I′) were tested alone, to detect possible agonist activity. Compounds of formula I or I′ were tested usually in a concentration range from 10^−9 M to 10^−5 M.
(§4) In the second round, performed one hour later (to allow for equilibration), Orexin A was tested either in the absence (calibration curves, Orexin A agonist controls) or in the presence of compounds of formula (I) or (I′) to determine antagonism.

Experiment [2] concerns the target human orexin 2 receptors (Homo sapiens (Human), UniProt O43614). The experiment is described as above. It is filed as cell-based. To be noted: for inhibition at 10 µM: measured at a concentration of 10 μM of compound, read-out: FLIPR hOx2R % inhibition value; for Ki: antagonism of orexin A, Cheng-Prusoff corrected, read-out: FLIPR hOx2R Ki. Here is the method:
as §1
Cells expressing human orexin 1 or human orexin 2 receptors, were seeded at 8,000 cells/well in 384 well black-walled clear bottom, poly-D-lysine coated plates.
On the day of the experiment, the cells seeded in black plates were treated with assay buffer containing the Ca^2+ sensitive fluorescent dye Fluo4-AM (2 μM), and probenecid (0.1 mM). After 1 h plates were washed twice with, and resuspended in, assay buffer containing probenecid (0.1 mM) using a multi plate washer. […] Fluorescence measurements were then continued every 1 S for 120 S followed by every 4 S for 240 S.
as §2, §3, §4

human orexin 2 receptors, sequence (O43614 whole entry): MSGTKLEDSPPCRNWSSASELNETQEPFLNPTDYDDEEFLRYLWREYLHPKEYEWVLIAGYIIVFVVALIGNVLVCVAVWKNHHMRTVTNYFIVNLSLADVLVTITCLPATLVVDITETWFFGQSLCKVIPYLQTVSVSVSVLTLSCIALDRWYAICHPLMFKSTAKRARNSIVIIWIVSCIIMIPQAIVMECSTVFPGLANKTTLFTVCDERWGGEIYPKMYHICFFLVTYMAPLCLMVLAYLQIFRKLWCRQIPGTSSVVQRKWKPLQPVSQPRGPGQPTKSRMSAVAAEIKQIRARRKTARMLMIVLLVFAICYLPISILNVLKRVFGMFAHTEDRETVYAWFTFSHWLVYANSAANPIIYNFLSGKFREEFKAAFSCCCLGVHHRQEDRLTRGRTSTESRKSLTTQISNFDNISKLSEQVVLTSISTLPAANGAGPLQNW
human orexin 1 receptors, sequence (O43613 whole entry): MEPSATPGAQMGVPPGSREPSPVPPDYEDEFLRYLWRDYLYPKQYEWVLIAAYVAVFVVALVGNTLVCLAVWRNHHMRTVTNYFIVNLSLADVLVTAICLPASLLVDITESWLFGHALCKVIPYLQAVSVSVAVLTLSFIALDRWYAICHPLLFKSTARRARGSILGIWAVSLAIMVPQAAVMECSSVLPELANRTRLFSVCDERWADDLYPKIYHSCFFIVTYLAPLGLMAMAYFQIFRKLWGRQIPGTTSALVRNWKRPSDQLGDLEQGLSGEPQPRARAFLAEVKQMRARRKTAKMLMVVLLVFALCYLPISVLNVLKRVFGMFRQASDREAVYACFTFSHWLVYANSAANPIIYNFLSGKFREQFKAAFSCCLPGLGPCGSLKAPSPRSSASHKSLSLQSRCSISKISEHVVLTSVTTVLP

Consider `CC(C)CCNC(=O)COc1cc(C(F)(F)F)c2c(-c3ccccc3)nn(C)c2n1` [Example 1.68, N-isopentyl-2-(1-methyl-3-phenyl-4-(trifluoromethyl)-1H-pyrazolo[3,4-b]pyridin-6-yloxy)acetamide], for which the figures for the inhibition at 10 µM in experiment [1] and in experiment [2] were under 10% and 16%, respectively.
For `Cc1cc(OCC(=O)N[C@@H](C)c2ccccc2)nc2c1c(C1CC1)nn2C` [Example 1.69, (S)-2-(3-cyclopropyl-1,4-dimethyl-1H-pyrazolo[3,4-b]pyridin-6-yloxy)-N-(1-phenylethyl)acetamide], the Ki in experiment [1] worked out at 1010 nM; in experiment [2], 938 nM.
On to `Cc1nn(C)c(C)c1C(C)NC(=O)COc1cc(C)c2c(C3CC3)nn(C)c2n1` (stereo not shown) [Example 1.72, 2-(3-cyclopropyl-1,4-dimethyl-1H-pyrazolo[3,4-b]pyridin-6-yloxy)-N-(1-(1,3,5-trimethyl-1H-pyrazol-4-yl)ethyl)acetamide], for which the values for the Ki in experiment [1] and in experiment [2] were 2120 nM and 1230 nM, respectively.
Turning to `Cc1cc(OCC(=O)N[C@H]2CCc3ccccc32)nc2c1c(C1CC1)nn2C` [Example 1.75, (S)-2-(3-cyclopropyl-1,4-dimethyl-1H-pyrazolo[3,4-b]pyridin-6-yloxy)-N-(2,3-dihydro-1H-inden-1-yl)acetamide], the inhibition at 10 µM in experiment [1] came to 27%. Further, the Ki in experiment [2] was 809 nM.
`Cc1n[nH]c(C)c1C(C)NC(=O)COc1cc(C)c2c(C3CC3)nn(C)c2n1` (stereo not shown) [Example 1.76, 2-(3-cyclopropyl-1,4-dimethyl-1H-pyrazolo[3,4-b]pyridin-6-yloxy)-N-(1-(3,5-dimethyl-1H-pyrazol-4-yl)ethyl)acetamide]: the values for the Ki in experiment [1] and in experiment [2] were 395 nM and 606 nM, respectively.
As for `C[C@H](NC(=O)CNc1cc(C(F)(F)F)c2c(-c3ccccc3)nn(C)c2n1)c1ccccc1` [Example 3.1, (S)-2-(1-methyl-3-phenyl-4-(trifluoromethyl)-1H-pyrazolo[3,4-b]pyridin-6-ylamino)-N-(1-phenylethyl)acetamide], the Ki in experiment [1] is 357 nM; in experiment [2], 1140 nM.
In the case of `Cc1ccc([C@H](C)NC(=O)COc2cc(C)c3c(-c4ccnn4C)nn(C)c3n2)cc1` [Example 4.3, (S)-2-(1,4-dimethyl-3-(1-methyl-1H-pyrazol-5-yl)-1H-pyrazolo[3,4-b]pyridin-6-yloxy)-N-(1-p-tolylethyl)acetamide], the inhibition constant Ki in experiment [1] turned out to be 2680 nM; in experiment [2], 2220 nM.
Take `Cc1ccc([C@H](C)NC(=O)COc2cc(C)c3c(-c4cnc(C)n4C)nn(C)c3n2)cc1` [Example 4.4, (S)-2-(3-(1,2-dimethyl-1H-imidazol-5-yl)-1,4-dimethyl-1H-pyrazolo[3,4-b]pyridin-6-yloxy)-N-(1-p-tolylethyl)acetamide]: the Ki came out at 799 nM in experiment [1] and 725 nM in experiment [2].
For `Cc1ccc([C@H](C)NC(=O)COc2cc(C)c3c(-c4cc(C)nn4C)nn(C)c3n2)cc1` [Example 4.5, (S)-2-(3-(1,3-dimethyl-1H-pyrazol-5-yl)-1,4-dimethyl-1H-pyrazolo[3,4-b]pyridin-6-yloxy)-N-(1-p-tolylethyl)acetamide], in that order: 670 nM and 923 nM.
For `Cc1ccc([C@H](C)NC(=O)COc2cc(C)c3c(-c4cncn4C)nn(C)c3n2)cc1` [Example 4.11, (S)-2-(1,4-dimethyl-3-(1-methyl-1H-imidazol-5-yl)-1H-pyrazolo[3,4-b]pyridin-6-yloxy)-N-(1-p-tolylethyl)acetamide], in that order: 4330 nM and 1630 nM.
Regarding `COc1cncc(-c2nn(C)c3nc(OCC(=O)N[C@@H](C)c4ccc(C)cc4)cc(C)c23)n1` [Example 4.12, (S)-2-(3-(6-methoxypyrazin-2-yl)-1,4-dimethyl-1H-pyrazolo[3,4-b]pyridin-6-yloxy)-N-(1-p-tolylethyl)acetamide], the Ki in experiment [1] stood at 240 nM; in experiment [2] it was 202 nM.
Take `Cc1ccc([C@H](C)NC(=O)COc2cc(C)c3c(-c4cn(C)cn4)nn(C)c3n2)cc1` [Example 4.13, (S)-2-(1,4-dimethyl-3-(1-methyl-1H-imidazol-4-yl)-1H-pyrazolo[3,4-b]pyridin-6-yloxy)-N-(1-p-tolylethyl)acetamide]: the Ki worked out at 1160 nM in experiment [1] and 626 nM in experiment [2].
On to `Cc1nn(C)c(C)c1C(C)NC(=O)COc1cc(C(F)F)c2c(C3CC3)nn(C)c2n1` (stereo not shown) [Example 6.9, 2-(3-cyclopropyl-4-(difluoromethyl)-1-methyl-1H-pyrazolo[3,4-b]pyridin-6-yloxy)-N-(1-(1,3,5-trimethyl-1H-pyrazol-4-yl)ethyl)acetamide], for which the Ki in experiment [1] turned out to be 778 nM; in experiment [2], 527 nM.
For `COc1ccc(C(C)NC(=O)COc2cc(C(F)F)c3c(C4CC4)nn(C)c3n2)cn1` (stereo not shown) [Example 6.10, 2-(3-cyclopropyl-4-(difluoromethyl)-1-methyl-1H-pyrazolo[3,4-b]pyridin-6-yloxy)-N-(1-(6-methoxypyridin-3-yl)ethyl)acetamide], in that order: 516 nM and 184 nM.
For `Cc1ccc([C@H](C)NC(=O)COc2cc(C(C)C)c3c(C4CC4)nn(C)c3n2)cc1` [Example 6.11, (S)-2-(3-cyclopropyl-4-isopropyl-1-methyl-1H-pyrazolo[3,4-b]pyridin-6-yloxy)-N-(1-p-tolylethyl)acetamide], in that order: 691 nM and 208 nM.
For `Cc1nn(C)c(C)c1C(C)NC(=O)COc1cc(C(F)(F)F)c2c(C3CC3)nn(C)c2n1` (stereo not shown) [Example 6.12, 2-(3-cyclopropyl-1-methyl-4-(trifluoromethyl)-1H-pyrazolo[3,4-b]pyridin-6-yloxy)-N-(1-(1,3,5-trimethyl-1H-pyrazol-4-yl)ethyl)acetamide], in that order: 680 nM and 165 nM.
As to `Cc1ccc(C(C)NC(=O)COc2cc(C(F)(F)F)c3c(C4CC4)nn(C)c3n2)cn1` (stereo not shown) [Example 6.16, 2-(3-cyclopropyl-1-methyl-4-(trifluoromethyl)-1H-pyrazolo[3,4-b]pyridin-6-yloxy)-N-(1-(6-methylpyridin-3-yl)ethyl)acetamide], the values for the Ki in experiment [1] and in experiment [2] were 1590 nM and 188 nM, respectively.
For `Cc1ccc(C(C)NC(=O)COc2cc(C(F)F)c3c(-c4ccccc4)nn(C)c3n2)cn1` (stereo not shown) [Example 6.18, 2-(4-(difluoromethyl)-1-methyl-3-phenyl-1H-pyrazolo[3,4-b]pyridin-6-yloxy)-N-(1-(6-methylpyridin-3-yl)ethyl)acetamide], in that order: 535 nM and 98 nM.
Take `Cc1ccc(C(C)NC(=O)COc2cc(C(F)F)c3c(C4CC4)nn(C)c3n2)cn1` (stereo not shown) [Example 6.19, 2-(3-cyclopropyl-4-(difluoromethyl)-1-methyl-1H-pyrazolo[3,4-b]pyridin-6-yloxy)-N-(1-(6-methylpyridin-3-yl)ethyl)acetamide]: the inhibition at 10 µM in experiment [1] turned out to be 41%. In addition, the Ki in experiment [2] worked out at 800 nM.
Consider `Cc1ccc([C@H](C)NC(=O)COc2ccc3c(C4CC4)nn(C)c3n2)cc1` [Example 6.23, (S)-2-(3-cyclopropyl-1-methyl-1H-pyrazolo[3,4-b]pyridin-6-yloxy)-N-(1-p-tolylethyl)acetamide], for which the Ki stood at 1100 nM in experiment [1] and 237 nM in experiment [2].
In the case of `COc1ccc([C@H](C)NC(=O)COc2cc(C)c3c(C(C)C)nn(C)c3n2)cc1` [Example 6.27, (S)-2-(3-isopropyl-1,4-dimethyl-1H-pyrazolo[3,4-b]pyridin-6-yloxy)-N-(1-(4-methoxyphenyl)ethyl)acetamide], the Ki is 415 nM in experiment [1] and 105 nM in experiment [2].
As to `COc1ccc(C(C)NC(=O)COc2cc(C)c3c(C(C)C)nn(C)c3n2)cn1` (stereo not shown) [Example 6.28, 2-(3-isopropyl-1,4-dimethyl-1H-pyrazolo[3,4-b]pyridin-6-yloxy)-N-(1-(6-methoxypyridin-3-yl)ethyl)acetamide], the inhibition at 10 µM in experiment [1] stood at 39%. The Ki in experiment [2] worked out at 1220 nM.
In the case of `Cc1nn(C)c(C)c1C(C)NC(=O)COc1cc(C)c2c(C(C)C)nn(C)c2n1` (stereo not shown) [Example 6.29, 2-(3-isopropyl-1,4-dimethyl-1H-pyrazolo[3,4-b]pyridin-6-yloxy)-N-(1-(1,3,5-trimethyl-1H-pyrazol-4-yl)ethyl)acetamide], the inhibition at 10 µM in experiment [1] came to 36%; in experiment [2], 34%.
